For six molecules, IC50 results are on record in patent US20230174535A1, “INHIBITORS OF FIBROBLAST GROWTH FACTOR RECEPTOR KINASES” (Kinnate Biopharma Inc., priority 2019, published 2023).

Usually IC50 stands for the concentration that inhibits the measured activity by half. The term pIC50 denotes the negative decadic logarithm of the IC50, by convention in mol/L.

pIC50: −log10 of the molar value. Like-named read-outs stand apart in the source and are kept apart here.

The test system of one experiment is SNU-16 cells. Put plainly: SNU-16 cell-based viability assay (CellTiter-Glo). The following applies: Homo sapiens. The source says: For determining the covalent nature of compounds, a simple cell-based assay was employed. SNU-16 cells were obtained from ATCC (Cat #CRL-5974; American Type Culture Collection; Manassas, Va. 20110) for this assay. SNU-16 is a cultured line derived in 1987 by J. Park and associates from ascites of a patient with poorly differentiated gastric carcinoma of the stomach, and cells were collected from the patient prior to chemotherapy. The cells express the surface glycoproteins carcinoembryonic antigen (CEA) and TAG-72. No evidence of amplification or rearrangements has been noted in the N-myc, L-myc, myb and EGF receptor genes, although the c-myc proto-oncogene is amplified. There was no expression of the following genes: N-myc, L-myc, c-cis, IGF-2, or gastrin releasing peptide. These cells are known to have an FGFR2 amplification and are therefore relevant for the compound testing at hand (1). For this assay, cells were plated on poly-D-lysine to maintain attachment. Cells were either exposed to compound for 2 hours or 72 hours to test the ability of the compound to stay on target after binding. Briefly, 80 μL cell solution containing 5000 SNU-16 cells was plated per well into 96-well Poly-D-Lysine Cellware plate and incubated in 37° C. incubator overnight to facilitate adherence. Compounds were solubilized fresh from powder as dimethylsulfoxide stocks (DMSO), and plated as half log, 9 point dilutions in DMSO and then plated into cell media containing RPMI1640+10% FBS for ease of transfer without disrupting cells. Total volume in cells was 100 uL. For cells exposed to compound for two hours, cells were incubated in 37° C. incubator for 2 hours, upon which time plates were removed and cells were centrifuged at 1500 rpm for 5 min, followed by removal of all supernatant, and the re-dispense 100 μL of RPMI1640+10% FBS per well. This was repeated twice. Plates were put back into the incubator for 72 hours. For cells exposed to compound for 72 hours, plates were removed from the incubator for the time of washing but not disturbed, and then placed back in the incubator without washing. Assay plates were read for total ATP by luminescent CTG signal at the end of the 72 hour incubation by adding 100 μL of CTG (Cell TiterGlo: Cat #G9241; Promega Corporation, Madison, Wis., 53711) per well, followed by gently agitating the contents for 2 min on the plate shaker, and incubating the plates for 10 min at room temperature in dark. […] Clin Cancer Res 2010; 16:5750-8.

For another experiment, the target named is T1, Human FGFR2 wildtype (Homo sapiens, UniProt P21802).
T1 construct: purchased Reaction Biology Corporation (contract assay; enzyme is the CRO's own)
Put plainly: FGFR2 wildtype kinase assay (Reaction Biology HotSpot). The experiment is classed as biochemical. As to conditions: ATP at Km; read-out: FGFR2 (WT) Km IC50. The procedure:
(§1) Biochemical assays were run at Reaction Biology (Reaction Biology Corporation, 1 Great Valley Parkway, Suite 2, Malvern, Pa. 19355, USA). The Reaction Biology (http://www.reactionbiology.com) HotSpot assay platform was used to measure kinase/inhibitor interactions as described previously (Anastassiadis et al., 2011). In brief, for each reaction, kinase and substrate were mixed in a buffer containing 20 mM HEPES (pH 7.5), 10 mM MgCl2, 1 mM EGTA, 0.02% Brij35, 0.02 mg/mL BSA, 0.1 mM Na3VO4, 2 mM DTT, and 1% DMSO. All compounds were in powder form and freshly solubilized in DMSO for assays. Compounds were then added to each reaction mixture via acoustic dispensing using an ECHO 550 nanoliter dispenser. For Human FGFR2 wildtype testing, a peptide substrate, poly[Glu:Tyr] (4:1) was used to promote the reaction at a concentration of 0.2 mg/ml, with a final ATP concentration as determined by Reaction Biology. For Human FGFR2 (V565F) testing, a peptide substrate, poly[Glu:Tyr] (4:1) was used to promote the reaction at a concentration of 0.2 mg/ml, with a final ATP concentration as determined by Reaction Biology. Compounds were tested in 10-dose IC50 mode with a 3-fold serial dilution. After a 20-min incubation, ATP (Sigma-Aldrich, St. Louis, Mo. 63178) and [g33P] ATP (specific activity 10 microCi/microliter) purchased at PerkinElmer (Boston, Mass., 02118 Cat #BLU 003H250UC) were added at a final total concentration of 10 mM. Reactions were carried out at room temperature for 2 hr and spotted onto P81 ion exchange cellulose chromatography paper (Reaction Biology). Filter paper was washed in 0.75% phosphoric acid to remove unincorporated ATP. The percent remaining kinase activity relative to a vehicle-containing (DMSO) kinase reaction was calculated for each kinase/inhibitor pair. IC50 values were calculated using Prism 5 (GraphPad).

In another experiment the target is T2, Human FGFR2 (V565F) (Homo sapiens, UniProt P21802, V564F).
T2 construct: purchased Reaction Biology Corporation (contract assay; enzyme is the CRO's own)
Put plainly: FGFR2 V565F mutation kinase assay (Reaction Biology HotSpot). Format: biochemical. The following applies: 100 uM ATP. The procedure:
as §1, with “ATP (specific activity 10 microCi/microliter) purchased at PerkinElmer (Boston, Mass., 02118 Cat #BLU 003H250UC) were added at a final total concentration of 10 mM.” left out

[1] abbreviates: cells exposed to compound for 2 hours, washed, read after 72 hour incubation, read-out: SNU-16 IC50 (nM) 2 h.
Setting [2] is: cells exposed to compound for 72 hours, no washing, read-out: SNU-16 IC50 (nM) 72 h.

T2 sequence (P21802 22-822 isoform P21802-3 V565F limits assumed): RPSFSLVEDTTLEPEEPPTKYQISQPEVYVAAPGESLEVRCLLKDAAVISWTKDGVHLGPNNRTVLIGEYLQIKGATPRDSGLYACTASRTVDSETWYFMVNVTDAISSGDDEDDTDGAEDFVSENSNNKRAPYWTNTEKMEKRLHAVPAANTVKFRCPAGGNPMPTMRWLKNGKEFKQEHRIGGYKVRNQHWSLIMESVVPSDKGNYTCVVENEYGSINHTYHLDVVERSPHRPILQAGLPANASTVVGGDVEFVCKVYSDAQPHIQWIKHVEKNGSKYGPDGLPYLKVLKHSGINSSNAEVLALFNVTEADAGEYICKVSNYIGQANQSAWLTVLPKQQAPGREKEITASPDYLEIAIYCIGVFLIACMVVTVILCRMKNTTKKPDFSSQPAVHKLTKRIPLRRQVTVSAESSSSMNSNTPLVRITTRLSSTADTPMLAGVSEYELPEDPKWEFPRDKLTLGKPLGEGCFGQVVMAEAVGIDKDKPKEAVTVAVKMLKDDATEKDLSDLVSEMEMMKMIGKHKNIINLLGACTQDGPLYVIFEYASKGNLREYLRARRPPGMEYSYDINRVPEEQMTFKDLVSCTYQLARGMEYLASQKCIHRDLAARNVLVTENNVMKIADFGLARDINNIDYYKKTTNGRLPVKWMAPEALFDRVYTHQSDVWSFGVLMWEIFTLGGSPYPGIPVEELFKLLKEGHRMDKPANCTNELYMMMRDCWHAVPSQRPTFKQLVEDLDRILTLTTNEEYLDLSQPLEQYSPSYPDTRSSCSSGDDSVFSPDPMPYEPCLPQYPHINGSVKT
T1 sequence (P21802 22-821): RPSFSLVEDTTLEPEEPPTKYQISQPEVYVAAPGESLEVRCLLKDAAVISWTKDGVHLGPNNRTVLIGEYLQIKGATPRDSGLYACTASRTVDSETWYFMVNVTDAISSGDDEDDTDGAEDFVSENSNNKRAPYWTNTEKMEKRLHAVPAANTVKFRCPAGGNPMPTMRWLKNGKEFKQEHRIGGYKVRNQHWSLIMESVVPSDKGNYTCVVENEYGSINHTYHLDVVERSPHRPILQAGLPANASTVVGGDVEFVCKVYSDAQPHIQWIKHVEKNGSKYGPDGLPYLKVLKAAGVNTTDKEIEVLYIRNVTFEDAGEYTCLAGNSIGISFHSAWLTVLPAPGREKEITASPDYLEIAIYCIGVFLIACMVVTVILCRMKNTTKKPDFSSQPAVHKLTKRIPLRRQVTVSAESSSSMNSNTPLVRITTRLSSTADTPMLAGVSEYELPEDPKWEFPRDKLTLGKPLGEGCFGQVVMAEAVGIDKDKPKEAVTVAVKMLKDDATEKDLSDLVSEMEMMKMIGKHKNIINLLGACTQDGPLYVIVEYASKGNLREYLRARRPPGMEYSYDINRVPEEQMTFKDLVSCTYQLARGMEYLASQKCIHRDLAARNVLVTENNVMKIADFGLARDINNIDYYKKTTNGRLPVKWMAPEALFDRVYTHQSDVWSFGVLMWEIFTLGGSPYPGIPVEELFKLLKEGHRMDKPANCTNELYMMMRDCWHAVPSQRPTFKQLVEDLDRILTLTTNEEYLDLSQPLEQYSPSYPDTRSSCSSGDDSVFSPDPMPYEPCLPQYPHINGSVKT

`C=CC(=O)N1CC(c2cc(C#Cc3c(F)c(OC)cc(OC)c3F)c3c(N)ncnn23)C[C@@H]1COC` (single isomer, unassigned) [Chemical Synthesis Example 3]: the results for the IC50 in the experiment with SNU-16 cells (setting [1]) and in the experiment with SNU-16 cells (setting [2]) were 1000 to 10000 nM and 100 to 1000 nM, respectively.
As for `C=CC(=O)N1C[C@@H](c2cc(C#Cc3cc(OC)cc(OC)c3)c3c(N)ncnn23)C[C@@H]1COC` (single isomer, unassigned) [Chemical Synthesis Example 1], the IC50 in the experiment with SNU-16 cells (setting [1]) was 1000 to 10000 nM; in the experiment on SNU-16 cells (setting [2]) it was 10 to 100 nM.
For the molecule `C=CC(=O)N1CC(c2cc(C#Cc3c(F)c(OC)cc(OC)c3F)c3c(N)ncnn23)C[C@@H]1COC` (single isomer, unassigned) [Chemical Synthesis Example 4], the pIC50 at Human FGFR2 wildtype and on Human FGFR2 (V565F) was at least 8.00 each time. Also, the IC50 with SNU-16 cells (setting [1]) and in the experiment with SNU-16 cells (setting [2]) was at most 10 nM in each case.
Consider `C=CC(=O)N1CC(c2cc(C#Cc3cc(OC)cc(OC)c3F)c3c(N)ncnn23)C[C@@H]1COC` (single isomer, unassigned) [Chemical Synthesis Example 5], for which the IC50 in the experiment on SNU-16 cells (setting [1]) was 1000 to 10000 nM; in the experiment with SNU-16 cells (setting [2]), 100 to 1000 nM.
As to `C=CC(=O)N1CC(c2cc(C#Cc3cc(OC)cc(OC)c3F)c3c(N)ncnn23)C[C@@H]1COC` (single isomer, unassigned) [Chemical Synthesis Example 6], the pIC50 was at least 8.00 on Human FGFR2 wildtype and 7.00 to 8.00 on Human FGFR2 (V565F). Also, the IC50 with SNU-16 cells (setting [1]) and in the experiment with SNU-16 cells (setting [2]) was at most 10 nM each time.
In the case of `C=CC(=O)N1C[C@H](c2cc(C#Cc3cc(OC)cc(OC)c3)c3c(N)ncnn23)C[C@@H]1COC` (single isomer, unassigned) [Chemical Synthesis Example 2], the pIC50 is at least 8.00 on Human FGFR2 wildtype and 7.00 to 8.00 at Human FGFR2 (V565F). In addition, the IC50 in the experiment with SNU-16 cells (setting [1]) and in the experiment with SNU-16 cells (setting [2]) was at most 10 nM in each case.
